Data from patent US7291492B2, “Histone deacetylase 9” (The Institute of Cancer Research, priority 2001, dated 2007).

Test system: GAL4 DBD-HDAC9 fusions
Settings: 293T cells, GAL4-TK-Luc reporter; HDAC9, HDAC9ΔCD and HDAC9CD fusions
Description: GAL4-Tk-Luc was transiently transfected into 293T cells together with 100 ng GAL4 DBD fusions. All Results were performed in duplicate […].
It has been previously established that HDACs repress transcription when tethered to DNA as Gal4 fusion proteins. […] A GAL4^uasx5-TK-Luciferase reporter gene was transiently transfected into 293T cells together with the expression vectors for the indicated GAL4 fusion proteins.

## Trichostatin A
  effect on the repressive effects of GAL4 DBD-HDAC9 fusions (reporter activity): partially relieved
